Assay results reported in US8192962B2, “Processes for detecting toxic substances” (Daikin Industries, Ltd., priority 2001, dated 2012).

Test system: Unknown protein yeast genes
Experiment: DNA chip mRNA expression in yeast, unknown protein yeast genes (Table 1)
Type: cell-based, Saccharomyces cerevisiae S288C
Outline: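 Whole-genome yeast DNA chip hybridization (65° C., >12 h) of Cy-labeled cDNA from S288C cells exposed 2 h at 25° C. to a sub-lethal toxicant dose in YPD; value is intensity relative to chemical-free control.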

## O=[N+]([O-])c1cc[n+]([O-])c2ccccc12 [(5), 4-nitroquinolin-N-oxide]
Yeast gene YAL053W, incubated two hours with chemical substance
  The level of expressed mRNA in the presence of chemical substance/The level of expressed mRNA in the absence of chemical substance: 0.8
Yeast gene YAR023C
  The level of expressed mRNA in the presence of chemical substance/The level of expressed mRNA in the absence of chemical substance: 1.3
Yeast gene YBL048W
  The level of expressed mRNA in the presence of chemical substance/The level of expressed mRNA in the absence of chemical substance: 1.3
Yeast gene YBL107C
  The level of expressed mRNA in the presence of chemical substance/The level of expressed mRNA in the absence of chemical substance: 1.2
Yeast gene YDL072C, incubated two hours with chemical substance
  The level of expressed mRNA in the presence of chemical substance/The level of expressed mRNA in the absence of chemical substance: 1.4
Yeast gene YDL086W
  The level of expressed mRNA in the presence of chemical substance/The level of expressed mRNA in the absence of chemical substance: 1.3
Yeast gene YDL129W
  The level of expressed mRNA in the presence of chemical substance/The level of expressed mRNA in the absence of chemical substance: 1.3
Yeast gene YDL204W, incubated two hours with chemical substance
  The level of expressed mRNA in the presence of chemical substance/The level of expressed mRNA in the absence of chemical substance: 1.0
Yeast gene YDL222C, incubated two hours with chemical substance
  The level of expressed mRNA in the presence of chemical substance/The level of expressed mRNA in the absence of chemical substance: 1.0
Yeast gene YDR330W, incubated two hours with chemical substance
  The level of expressed mRNA in the presence of chemical substance/The level of expressed mRNA in the absence of chemical substance: 1.2
Yeast gene YDR359C
  The level of expressed mRNA in the presence of chemical substance/The level of expressed mRNA in the absence of chemical substance: 1.3
Yeast gene YDR411C, incubated two hours with chemical substance
  The level of expressed mRNA in the presence of chemical substance/The level of expressed mRNA in the absence of chemical substance: 1.6
Yeast gene YDR511W, incubated two hours with chemical substance
  The level of expressed mRNA in the presence of chemical substance/The level of expressed mRNA in the absence of chemical substance: 1.0
Yeast gene YDR533C
  The level of expressed mRNA in the presence of chemical substance/The level of expressed mRNA in the absence of chemical substance: 1.3
Yeast gene YDR545W, incubated two hours with chemical substance
  The level of expressed mRNA in the presence of chemical substance/The level of expressed mRNA in the absence of chemical substance: 1.4
Yeast gene YEL001C, incubated two hours with chemical substance
  The level of expressed mRNA in the presence of chemical substance/The level of expressed mRNA in the absence of chemical substance: 0.9
Yeast gene YER004W, incubated two hours with chemical substance
  The level of expressed mRNA in the presence of chemical substance/The level of expressed mRNA in the absence of chemical substance: 1.5
Yeast gene YER035W, incubated two hours with chemical substance
  The level of expressed mRNA in the presence of chemical substance/The level of expressed mRNA in the absence of chemical substance: 1.5
Yeast gene YER079W, incubated two hours with chemical substance
  The level of expressed mRNA in the presence of chemical substance/The level of expressed mRNA in the absence of chemical substance: 0.8
Yeast gene YER106W, incubated two hours with chemical substance
  The level of expressed mRNA in the presence of chemical substance/The level of expressed mRNA in the absence of chemical substance: 1.6
Yeast gene YER121W
  The level of expressed mRNA in the presence of chemical substance/The level of expressed mRNA in the absence of chemical substance: 1.3
Yeast gene YER158C, incubated two hours with chemical substance
  The level of expressed mRNA in the presence of chemical substance/The level of expressed mRNA in the absence of chemical substance: 0.8
Yeast gene YER163C, incubated two hours with chemical substance
  The level of expressed mRNA in the presence of chemical substance/The level of expressed mRNA in the absence of chemical substance: 0.8
Yeast gene YER175C, incubated two hours with chemical substance
  The level of expressed mRNA in the presence of chemical substance/The level of expressed mRNA in the absence of chemical substance: 0.9
Yeast gene YER189W
  The level of expressed mRNA in the presence of chemical substance/The level of expressed mRNA in the absence of chemical substance: 1.3
Yeast gene YFL006W, incubated two hours with chemical substance
  The level of expressed mRNA in the presence of chemical substance/The level of expressed mRNA in the absence of chemical substance: 1.4
Yeast gene YFL010C, incubated two hours with chemical substance
  The level of expressed mRNA in the presence of chemical substance/The level of expressed mRNA in the absence of chemical substance: 1.3
Yeast gene YFL024C
  The level of expressed mRNA in the presence of chemical substance/The level of expressed mRNA in the absence of chemical substance: 1.1
Yeast gene YFL032W, incubated two hours with chemical substance
  The level of expressed mRNA in the presence of chemical substance/The level of expressed mRNA in the absence of chemical substance: 0.9
Yeast gene YGL037C, incubated two hours with chemical substance
  The level of expressed mRNA in the presence of chemical substance/The level of expressed mRNA in the absence of chemical substance: 0.9
Yeast gene YGL047W, incubated two hours with chemical substance
  The level of expressed mRNA in the presence of chemical substance/The level of expressed mRNA in the absence of chemical substance: 1.3
Yeast gene YGL053W, incubated two hours with chemical substance
  The level of expressed mRNA in the presence of chemical substance/The level of expressed mRNA in the absence of chemical substance: 2.0
Yeast gene YGL121C
  The level of expressed mRNA in the presence of chemical substance/The level of expressed mRNA in the absence of chemical substance: 0.9
Yeast gene YGL199C, incubated two hours with chemical substance
  The level of expressed mRNA in the presence of chemical substance/The level of expressed mRNA in the absence of chemical substance: 0.7
Yeast gene YGR038W
  The level of expressed mRNA in the presence of chemical substance/The level of expressed mRNA in the absence of chemical substance: 1.3
Yeast gene YGR101W, incubated two hours with chemical substance
  The level of expressed mRNA in the presence of chemical substance/The level of expressed mRNA in the absence of chemical substance: 1.2
Yeast gene YGR110W
  The level of expressed mRNA in the presence of chemical substance/The level of expressed mRNA in the absence of chemical substance: 0.9
Yeast gene YGR130C, incubated two hours with chemical substance
  The level of expressed mRNA in the presence of chemical substance/The level of expressed mRNA in the absence of chemical substance: 1.4
Yeast gene YGR142W
  The level of expressed mRNA in the presence of chemical substance/The level of expressed mRNA in the absence of chemical substance: 1.3
Yeast gene YGR154C, incubated two hours with chemical substance
  The level of expressed mRNA in the presence of chemical substance/The level of expressed mRNA in the absence of chemical substance: 1.2
Yeast gene YGR221C, incubated two hours with chemical substance
  The level of expressed mRNA in the presence of chemical substance/The level of expressed mRNA in the absence of chemical substance: 0.9
Yeast gene YHR138C, incubated two hours with chemical substance
  The level of expressed mRNA in the presence of chemical substance/The level of expressed mRNA in the absence of chemical substance: 1.5
Yeast gene YHR199C, incubated two hours with chemical substance
  The level of expressed mRNA in the presence of chemical substance/The level of expressed mRNA in the absence of chemical substance: 1.2
Yeast gene YIL023C, incubated two hours with chemical substance
  The level of expressed mRNA in the presence of chemical substance/The level of expressed mRNA in the absence of chemical substance: 1.3
Yeast gene YIL041W, incubated two hours with chemical substance
  The level of expressed mRNA in the presence of chemical substance/The level of expressed mRNA in the absence of chemical substance: 0.5
Yeast gene YIL057C
  The level of expressed mRNA in the presence of chemical substance/The level of expressed mRNA in the absence of chemical substance: 1.3
Yeast gene YIL087C, incubated two hours with chemical substance
  The level of expressed mRNA in the presence of chemical substance/The level of expressed mRNA in the absence of chemical substance: 1.4
Yeast gene YIR041W
  The level of expressed mRNA in the presence of chemical substance/The level of expressed mRNA in the absence of chemical substance: 1.3
Yeast gene YJL057C, incubated two hours with chemical substance
  The level of expressed mRNA in the presence of chemical substance/The level of expressed mRNA in the absence of chemical substance: 1.5
Yeast gene YJL066C, incubated two hours with chemical substance
  The level of expressed mRNA in the presence of chemical substance/The level of expressed mRNA in the absence of chemical substance: 0.8
Yeast gene YJL082W, incubated two hours with chemical substance
  The level of expressed mRNA in the presence of chemical substance/The level of expressed mRNA in the absence of chemical substance: 1.7
Yeast gene YJL100W
  The level of expressed mRNA in the presence of chemical substance/The level of expressed mRNA in the absence of chemical substance: 1.3
Yeast gene YJL151C, incubated two hours with chemical substance
  The level of expressed mRNA in the presence of chemical substance/The level of expressed mRNA in the absence of chemical substance: 1.3
Yeast gene YJL152W, incubated two hours with chemical substance
  The level of expressed mRNA in the presence of chemical substance/The level of expressed mRNA in the absence of chemical substance: 1.6
Yeast gene YJL161W, incubated two hours with chemical substance
  The level of expressed mRNA in the presence of chemical substance/The level of expressed mRNA in the absence of chemical substance: 1.1
Yeast gene YJL171C, incubated two hours with chemical substance
  The level of expressed mRNA in the presence of chemical substance/The level of expressed mRNA in the absence of chemical substance: 1.0
Yeast gene YJR008W, incubated two hours with chemical substance
  The level of expressed mRNA in the presence of chemical substance/The level of expressed mRNA in the absence of chemical substance: 1.4
Yeast gene YJR054W, incubated two hours with chemical substance
  The level of expressed mRNA in the presence of chemical substance/The level of expressed mRNA in the absence of chemical substance: 1.0
